Reference: patent US10577362B2, “Substituted 2, 4-diamino-quinoline derivatives for use in the treatment of proliferative diseases” (GENOSCIENCE PHARMA, priority 2016, dated 2020)

What was measured:
Format in all cases: cell-based, human
[1] = tested on: MOLM-14 (acute myeloid leukemia) cell line; assay: CellTiter-Glo luminescent cell viability assay, MOLM-14; conditions: Homo sapiens; for EC50: MOLM-14 cell line, 72 h incubation, CellTiter-Glo, read-out: EC50, growth inhibition of MOLM-14; for viability at 4 µM: MOLM-14, compound at 4 μM; for viability at 4 µM / viability at 10 µM: 72 h; for viability at 10 µM: MOLM-14, compound at 10 μM
Method: (§1) All cell lines were maintained in medium containing 1% penicillin-streptomycin (Dutscher, P06-07100) and 10% Fetal Bovine Serum (Hyclone Dutscher, RZK35922) cultured at 37° C. with 5% CO2. HepG2 (hepatocellular carcinoma), cell line was cultured in Dulbecco's modified Eagle's medium low glucose (Gibco, 21885025), Huh7 (hepatocellular carcinoma), HCT-116 (colorectal carcinoma), PANC-1 (prancreatic carcinoma) and A375 (malignant melanoma) cell lines were cultured in Dulbecco's modified Eagle's medium (Dutscher, L0103). MOLM-14 (acute myeloid leukemia) cell line was maintained in MEM alpha medium (Gibco, 22561-021). 786-0 (renal adenocarcinoma) cell lines were maintained in RPMI 1640 medium (Dutscher, L0498).
(§2) Cell viability was measured using the CellTiter-Glo® luminescent cell viability assay as described by the manufacturer (Promega, Ref G7571) using an Infinite F200Pro luminometer (Tecan). Briefly, for adherent cells, cells were plated onto 96-well plates (white with clear bottom) in 90 μL of media per well and were allowed to grow overnight before the assay. For cells growing in suspension, cells were plated onto 96-well plates 1 h before the assay.
(§3) Compounds were resuspended in H2O or DMSO and added at different concentrations to each well, and cell cultures were incubated for 72 h. Each diluent (H2O or DMSO) were used as a control, and all compounds were tested in a constant percentage of H2O or DMSO. On the day of the reading, plates are equilibrated 30 min at room temperature before the addition of 100 μL of CellTiter-Glo® and luminescence was measured using an Infinite F200Pro (Tecan). % cell viability were expressed as a percentage of the signal obtained for cell cultures treated with diluent. EC50 values were determined as the dose of compound required to reduce luminescent values to 50% of the signal obtained for cell cultures treated with diluent. The experimental data were analyzed using a computer program, Graphpad Prism v5 (GraphPad Software, Inc. La Jolla, Calif.). All points were at least done in duplicate.

[2] = tested on: A375 (malignant melanoma) cell line; assay: CellTiter-Glo luminescent cell viability assay, A375; conditions: Homo sapiens, A-375; for EC50: A375 cell line, 72 h incubation, CellTiter-Glo, read-out: EC50, growth inhibition of A375; for viability at 4 µM: A375, compound at 4 μM; for viability at 4 µM / viability at 10 µM: 72 h; for viability at 10 µM: A375, compound at 10 μM
Method: as §1, §2, §3

[3] = tested on: HCT-116 (colorectal carcinoma) cell line; assay: CellTiter-Glo luminescent cell viability assay, HCT-116; conditions: Homo sapiens; for EC50: HCT-116 cell line, 72 h incubation, CellTiter-Glo, read-out: EC50, growth inhibition of HCT-116; for viability at 4 µM: HCT-116, compound at 4 μM; for viability at 4 µM / viability at 10 µM: 72 h; for viability at 10 µM: HCT-116, compound at 10 μM
Method: as §1, §2, §3

[4] = tested on: Huh7 (hepatocellular carcinoma) cell line; assay: CellTiter-Glo luminescent cell viability assay, Huh7; conditions: Homo sapiens, Huh-7; for EC50: Huh7 cell line, 72 h incubation, CellTiter-Glo, read-out: EC50, growth inhibition of Huh7; for viability at 4 µM: Huh7, compound at 4 μM; for viability at 4 µM / viability at 10 µM: 72 h; for viability at 10 µM: Huh7, compound at 10 μM
Method: as §1, §2, §3

[5] = tested on: 786-O (renal adenocarcinoma) cell line; assay: CellTiter-Glo luminescent cell viability assay, 786-O; conditions: Homo sapiens, 786-0; for EC50: 786-O cell line, 72 h incubation, CellTiter-Glo, read-out: EC50, growth inhibition of 786-O; for viability at 4 µM / viability at 10 µM: 786-O, 72 h; for viability at 4 µM: compound at 4 μM; for viability at 10 µM: compound at 10 μM
Method: as §1, §2, §3

[6] = tested on: HepG2 (hepatocellular carcinoma) cell line; assay: CellTiter-Glo luminescent cell viability assay, HepG2; conditions: Homo sapiens; for EC50: HepG2 cell line, 72 h incubation, CellTiter-Glo, read-out: EC50, growth inhibition of HepG2; for viability at 4 µM / viability at 10 µM: HepG2, HepG, 72 h; for viability at 4 µM: compound at 4 μM; for viability at 10 µM: compound at 10 μM
Method: as §1, §2, §3

EC50 [1]	EC50 [2]	EC50 [3]	EC50 [4]	EC50 [5]	EC50 [6]	SMILES	viability at 4 µM [1]	viability at 10 µM [1]	viability at 4 µM [2]	viability at 10 µM [2]	viability at 4 µM [3]	viability at 10 µM [3]	viability at 4 µM [4]	viability at 10 µM [4]	viability at 4 µM [5]	viability at 10 µM [5]	viability at 4 µM [6]	viability at 10 µM [6]
5 to 10 µM	0.5 to 5 µM	0.5 to 5 µM	5 to 10 µM	0.5 to 5 µM	0.5 to 5 µM	Cc1cc(C)nc(Nc2ccc(Nc3nc4ccccc4c(N4CCC(NC(C)(C)C)CC4)c3C#N)cc2C)n1 [Compound 502CN, 2-[4-(4,6-dimethyl-2-pyrimidinamino)-3-methyl-phenylamino]-3-cyano-4-(4-tert-butylaminopiperidin-1-yl)-quinoline]	–	–	–	–	–	–	–	–	–	–	–	–
–	–	–	–	–	–	COc1cc(C)nc(Nc2ccc(Nc3nc4ccccc4c(N4CCC(NC(C)(C)C)CC4)c3C#N)cc2C)n1 [Compound 510CN, 2-[4-(4-methyl-6-methoxypyrimidin-2-ylamino)-3-methylphenylamino]-3-cyano-4-(4-tert-butylaminopiperidin-1-yl)quinoline]	74.5%	0.2%	57.4%	0.1%	24.8%	0.1%	62.6%	0.3%	2.8%	0.1%	54.6%	0.1%
–	–	–	–	–	–	Cc1cc2c(C)nc(Nc3ccc(Nc4nc5ccccc5c(N5CCC(NC(C)(C)C)CC5)c4C#N)cc3C)nc2o1 [Compound 512CN, 2-[3-methyl-4-(4,6-dimethylfuro[2,3-d]pyrimidin-2-ylamino)phenylamino]-3-cyano-4-(4-tert-butylaminopiperidin-1-yl)quinoline]	0.2%	0.3%	0.3%	0.2%	0.2%	0.2%	0.2%	0.3%	0.2%	0.2%	0.2%	0.2%
–	–	–	–	–	–	Cc1cc(Nc2nc3ccccc3c(N3CCC(NC(C)(C)C)CC3)c2C#N)ccc1Nc1ccnc(-c2cccnc2)n1 [Compound 522CN, 2-{3-methyl-4-[2-(pyridin-3-yl)pyrimidin-4-ylamino]phenylamino}-3-cyano-4-(4-tert-butylaminopiperidin-1-yl)quinoline]	0.3%	0.3%	0.3%	0.3%	0.3%	0.2%	0.4%	0.4%	0.2%	0.2%	0.3%	0.2%
5 to 10 µM	0.5 to 5 µM	0.5 to 5 µM	5 to 10 µM	0.5 to 5 µM	5 to 10 µM	Cc1ccnc(Nc2ccc(Nc3nc4ccccc4c(N4CCC(NC(C)(C)C)CC4)c3C#N)cc2)n1 [Compound 532CN, 2-[4-(4-methylpyrimidin-2-ylamino)phenylamino]-3-cyano-4-(4-tert-butylaminopiperidin-1-yl)quinoline]	–	–	–	–	–	–	–	–	–	–	–	–
–	–	–	–	–	–	Cc1ccnc(Nc2ccc(Nc3nc4ccccc4c(N4CCC(NC(C)(C)C)CC4)c3C)cc2)n1 [Compound 532Me, 2-[4-(4-methylpyrimidin-2-ylamino)phenylamino]-3-methyl-4-(4-tert-butylaminopiperidin-1-yl)quinoline]	65.5%	0.4%	23.3%	0.3%	16%	0.3%	55.9%	0.5%	0.3%	0.3%	12.3%	0.3%
